Reference: patent US8754071B2 (priority 2011, dated 2014)
Read-outs that look alike come from different tables or passages of the source.

Biological target: T1, c-kit (Homo sapiens, UniProt P10721)
T1 construct: human Mo7e cells which endogenously express c-kit; endogenous in cells; host or cells: human Mo7e cells (promegakaryocytic leukemia line), stimulated with human recombinant SCF
Test: Mo7e cell proliferation assay (SCF dependent proliferation)
Format: cell-based
Settings: Table 1, human Mo7e cells stimulated with SCF, 48 hours, CellTiter Glo, 1% FBS
Procedure: Mo7e Cell Proliferation Assay The compounds of Table 1 and Table 2 were tested for inhibition of SCF dependent proliferation using human Mo7e cells which endogenously express c-kit in a 384 well format. […] After 48 hours of incubation at 37° C., cell viability was measured by adding 25 uL of CellTiter Glo (Promega) to the cells and the luminescence was measured by a […] camera (Molecular Devices). […] The IC50 value is given as that concentration of the test compound in question that provoke a response halfway between the baseline and maximum responses.

T1 sequence (P10721 26-976): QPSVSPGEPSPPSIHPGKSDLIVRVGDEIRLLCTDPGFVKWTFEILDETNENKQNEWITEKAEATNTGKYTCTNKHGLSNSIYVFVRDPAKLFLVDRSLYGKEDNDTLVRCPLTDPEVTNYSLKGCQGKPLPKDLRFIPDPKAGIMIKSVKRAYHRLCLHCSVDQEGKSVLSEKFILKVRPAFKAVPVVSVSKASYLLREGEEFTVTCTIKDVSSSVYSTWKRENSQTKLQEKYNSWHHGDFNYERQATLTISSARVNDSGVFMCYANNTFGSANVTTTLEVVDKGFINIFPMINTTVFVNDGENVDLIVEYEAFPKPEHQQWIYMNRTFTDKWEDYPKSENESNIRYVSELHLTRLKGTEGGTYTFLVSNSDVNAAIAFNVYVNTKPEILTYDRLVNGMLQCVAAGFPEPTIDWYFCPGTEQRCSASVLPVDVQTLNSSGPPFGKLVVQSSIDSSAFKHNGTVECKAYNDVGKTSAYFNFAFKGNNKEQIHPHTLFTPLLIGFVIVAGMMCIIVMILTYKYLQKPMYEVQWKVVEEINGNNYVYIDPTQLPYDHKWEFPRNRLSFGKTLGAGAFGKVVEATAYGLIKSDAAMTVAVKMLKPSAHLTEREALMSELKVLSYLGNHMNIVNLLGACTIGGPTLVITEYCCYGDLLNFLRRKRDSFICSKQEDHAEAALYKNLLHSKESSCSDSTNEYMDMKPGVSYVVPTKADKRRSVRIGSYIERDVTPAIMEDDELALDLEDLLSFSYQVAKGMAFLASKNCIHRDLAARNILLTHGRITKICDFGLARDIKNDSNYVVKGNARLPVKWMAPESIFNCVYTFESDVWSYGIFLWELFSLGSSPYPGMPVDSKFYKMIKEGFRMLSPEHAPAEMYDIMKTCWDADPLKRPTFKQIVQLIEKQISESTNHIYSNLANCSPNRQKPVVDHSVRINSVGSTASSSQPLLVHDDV

Structure (SMILES) | IC50 (read-out: c-kit (Mo7e)) | IC50 (c-kit (Mo7e) μM)
Cc1ccc(-c2nc(N3C[C@@H]4C[C@@H](C3)O4)no2)cc1NC(=O)c1cnc2ccccn12 [F3] | 0.09 µM | –
Cc1ccc(-c2nc(N3CCC(F)CC3)no2)cc1NC(=O)c1cnc2ccccn12 [F5] | 0.034 µM | –
Cc1ccc(-c2noc(C3CCOC3)n2)cc1NC(=O)c1cnc2ccccn12 (stereo not drawn) [F7] | 0.078 µM | –
Cc1ccc(-c2noc(C3CCCCO3)n2)cc1NC(=O)c1cnc2ccccn12 (stereo not drawn) [F8] | 0.042 µM | –
COC(=O)N1CCCCC1c1nc(-c2ccc(C)c(NC(=O)c3cnc4ccccn34)c2)no1 (stereo not drawn) [F9] | 0.035 µM | –
Cc1ccc(-c2noc(C3CCC(F)(F)CO3)n2)cc1NC(=O)c1cnc2ccccn12 (stereo not drawn) [F10, N-(5-(5-(5,5-difluorotetrahydro-2H-pyran-2-yl)-1,2,4-oxadiazol-3-yl)-2-methylphenyl)imidazo[1,2-a]pyridine-3-carboxamide] | – | 0.023 µM
Cc1ccc(-c2noc([C@@H]3CCC(F)(F)CO3)n2)cc1NC(=O)c1cnc2ccccn12 [F11] | – | 0.023 µM
Cc1ccc(-c2noc(C3CN(S(C)(=O)=O)C3)n2)cc1NC(=O)c1cnc2ccccn12 [F14] | 0.042 µM | –
CCCS(=O)(=O)N1CC(c2nc(-c3ccc(C)c(NC(=O)c4cnc5ccccn45)c3)no2)C1 [F16] | 0.035 µM | –
Cc1ccc(-c2noc(CC3CCOCC3)n2)cc1NC(=O)c1cnc2ccccn12 [F17] | 0.027 µM | –
Cc1ccc(-c2noc(CC3CCCO3)n2)cc1NC(=O)c1cnc2ccccn12 (stereo not drawn) [F18] | 0.064 µM | –
CCS(=O)(=O)N1CC(c2nc(-c3ccc(C)c(NC(=O)c4cnc5ccccn45)c3)no2)C1 [F19] | 0.033 µM | –
Cc1ccc(-c2noc(CCCN3CCOCC3)n2)cc1NC(=O)c1cnc2ccccn12 [F20] | 0.095 µM | –
Cc1ccc(-c2noc(CN3CC(F)(F)C3)n2)cc1NC(=O)c1cnc2ccccn12 [F21] | 0.044 µM | –
Cc1ccc(-c2noc(CN3CCOCC3)n2)cc1NC(=O)c1cnc2ccccn12 [F22, N-(2-methyl-5-(5-(morpholinomethyl)-1,2,4-oxadiazol-3-yl)phenyl)imidazo[1,2-a]pyridine-3-carboxamide] | 0.073 µM | –
Cc1ccc(-c2noc([C@@H]3CCN3C(=O)OC(C)(C)C)n2)cc1NC(=O)c1cnc2ccccn12 [F24] | 0.08 µM | –
Cc1ccc(-c2noc([C@@H]3CCN3S(C)(=O)=O)n2)cc1NC(=O)c1cnc2ccccn12 [F25] | 0.046 µM | –
CC(C)(C)OC(=O)N1CC(c2nc(-c3ccc(F)c(NC(=O)c4cnc5ccccn45)c3)no2)C1 [F27, tert-butyl 3-(3-(4-fluoro-3-(imidazo[1,2-a]pyridine-3-carboxamido)phenyl)-1,2,4-oxadiazol-5-yl)azetidine-1-carboxylate] | 0.997 µM | –
CCS(=O)(=O)N1CC(c2nc(-c3ccc(F)c(NC(=O)c4cnc5ccccn45)c3)no2)C1 [F28, N-(5-(5-(1-(ethylsulfonyl)azetidin-3-yl)-1,2,4-oxadiazol-3-yl)-2-fluorophenyl)imidazo[1,2-a]pyridine-3-carboxamide] | 0.12 µM | –
Cc1ccc(-c2noc(CN3CCC(F)(F)C3)n2)cc1NC(=O)c1cnc2ccccn12 [F29] | 0.016 µM | –

Structure (SMILES) | IC50 (read-out: c-kit (Mo7e)) | IC50 (c-kit (Mo7e) μM)
CCCCS(=O)(=O)N1CC(c2nc(-c3ccc(C)c(NC(=O)c4cnc5ccccn45)c3)no2)C1 [F31] | 0.054 µM | –
Cc1ccc(-c2noc([C@@H]3CC(F)(F)CN3S(C)(=O)=O)n2)cc1NC(=O)c1cnc2ccccn12 [F32] | 0.055 µM | –
Cc1ccc(-c2noc(C3CN(S(C)(=O)=O)CCO3)n2)cc1NC(=O)c1cnc2ccccn12 (stereo not drawn) [F35] | 0.066 µM | –
Cc1ccc(-c2noc([C@@H]3CCCN3S(C)(=O)=O)n2)cc1NC(=O)c1cnc2ccccn12 [F36] | 0.093 µM | –
Cc1ccc(-c2noc(C[C@@H]3CCN(S(C)(=O)=O)C3)n2)cc1NC(=O)c1cnc2ccccn12 [F38] | 0.09 µM | –
Cc1ccc(-c2noc([C@@H]3CCCN(S(C)(=O)=O)C3)n2)cc1NC(=O)c1cnc2ccccn12 [F39] | 0.049 µM | –
Cc1ccc(-c2noc(CN3CC(F)(F)C(F)(F)C3)n2)cc1NC(=O)c1cnc2ccccn12 [F42] | 0.013 µM | –
Cc1ccc(-c2noc(C3CN(S(=O)(=O)C(F)F)C3)n2)cc1NC(=O)c1cnc2ccccn12 [F43] | 0.024 µM | –
O=C(Nc1cc(-c2noc(CN3CCC(F)(F)C3)n2)ccc1F)c1cnc2ccccn12 [F45] | 0.09 µM | –
O=C(Nc1cc(-c2noc(CN3CCC(F)(F)CC3)n2)ccc1F)c1cnc2ccccn12 [F46] | 0.073 µM | –
Cc1ccc(-c2noc([C@@H]3CCN3S(=O)(=O)C(C)C)n2)cc1NC(=O)c1cnc2ccccn12 [F47] | 0.047 µM | –
COC(=O)N1CC(c2nc(-c3ccc(C)c(NC(=O)c4cnn5ccccc45)c3)no2)C1 [F48] | 0.08 µM | –
Cc1ccc(-c2noc(CC3CCCOC3)n2)cc1NC(=O)c1cnc2ccccn12 (stereo not drawn) [F49] | 0.04 µM | –
Cc1ccc(-c2noc([C@H](C)N3CC(F)(F)C3)n2)cc1NC(=O)c1cnc2ccccn12 [F50] | 0.077 µM | –
Cc1ccc(-c2noc([C@H](C)N3CCC(F)(F)C3)n2)cc1NC(=O)c1cnc2ccccn12 [F51] | 0.043 µM | –
COC(=O)N1CC(c2nc(-c3ccc(C)c(NC(=O)c4cnc5cc(F)ccn45)c3)no2)C1 [F54] | 0.037 µM | –
COC(=O)N1CC(c2nc(-c3ccc(C)c(NC(=O)c4cnc5ccc(F)cn45)c3)no2)C1 [F55] | 0.054 µM | –
COC(=O)N1CC(c2nc(-c3ccc(C)c(NC(=O)c4cnc5cc(-c6ccn(C)n6)ccn45)c3)no2)C1 [F56, methyl 3-(3-(4-methyl-3-(7-(1-methyl-1H-pyrazol-3-yl)imidazo[1,2-a]pyridine-3-carboxamido)phenyl)-1,2,4-oxadiazol-5-yl)azetidine-1-carboxylate] | 0.006 µM | –
COC(=O)N1CC(c2nc(-c3ccc(C)c(NC(=O)c4cnc5cc(C(F)(F)F)ccn45)c3)no2)C1 [F57, methyl 3-(3-(4-methyl-3-(7-(trifluoromethyl)imidazo[1,2-a]pyridine-3-carboxamido)phenyl)-1,2,4-oxadiazol-5-yl)azetidine-1-carboxylate] | 0.13 µM | –

More lines, in order of falling IC50 (read-out: c-kit (Mo7e)), values ahead:

IC50 (read-out: c-kit (Mo7e)) | Structure (SMILES) | IC50 (c-kit (Mo7e) μM)
0.623 µM | Cc1ccc(-c2noc(C3CN(C(=O)OC(C)(C)C)C3)n2)cc1NC(=O)c1cnc2ccccn12 [F13, tert-butyl 3-(3-(3-(imidazo[1,2-a]pyridine-3-carboxamido)-4-methylphenyl)-1,2,4-oxadiazol-5-yl)azetidine-1-carboxylate] | –
0.218 µM | COC(=O)N1CC(c2nc(-c3ccc(C)c(NC(=O)c4cnc5ccc(C(F)(F)F)cn45)c3)no2)C1 [F52, methyl 3-(3-(4-methyl-3-(6-(trifluoromethyl)imidazo[1,2-a]pyridine-3-carboxamido)phenyl)-1,2,4-oxadiazol-5-yl)azetidine-1-carboxylate] | –
0.103 µM | COC(=O)NC1(c2nc(-c3ccc(C)c(NC(=O)c4cnc5ccccn45)c3)no2)COC1 [F26, methyl (3-(3-(3-(imidazo[1,2-a]pyridine-3-carboxamido)-4-methylphenyl)-1,2,4-oxadiazol-5-yl)oxetan-3-yl)carbamate] | –
0.095 µM | Cc1ccc(-c2noc(C3CCN(S(C)(=O)=O)CC3)n2)cc1NC(=O)c1cnc2ccccn12 [F34] | –
0.094 µM | COC(=O)N1CCC[C@H]1Cc1nc(-c2ccc(C)c(NC(=O)c3cnc4ccccn34)c2)no1 [F40] | –
0.093 µM | CCOC(=O)N1CC(c2nc(-c3ccc(C)c(NC(=O)c4cnc5ccccn45)c3)no2)C1 [F53] | –
0.092 µM | Cc1ccc(-c2noc(C[C@@H]3CCCN3S(C)(=O)=O)n2)cc1NC(=O)c1cnc2ccccn12 [F41] | –
0.089 µM | Cc1ccc(-c2noc(C3(C)CN(S(C)(=O)=O)C3)n2)cc1NC(=O)c1cnc2ccccn12 [F58] | –
0.088 µM | Cc1ccc(-c2noc(C3CN(S(N)(=O)=O)C3)n2)cc1NC(=O)c1cnc2ccccn12 [F23, N-(2-methyl-5-(5-(1-sulfamoylazetidin-3-yl)-1,2,4-oxadiazol-3-yl)phenyl)imidazo[1,2-a]pyridine-3-carboxamide] | –
0.084 µM | COC(=O)N1CCC(c2nc(-c3ccc(C)c(NC(=O)c4cnc5ccccn45)c3)no2)CC1 [F33] | –
0.06 µM | Cc1ccc(-c2noc([C@H]3CN(S(C)(=O)=O)CCO3)n2)cc1NC(=O)c1cnc2ccccn12 [F37] | –
0.049 µM | Cc1ccc(-c2nc(N3CCC3)no2)cc1NC(=O)c1cnc2ccccn12 [F1] | –
0.035 µM | Cc1ccc(-c2nc(N3CCC(F)(F)CC3)no2)cc1NC(=O)c1cnc2ccccn12 [F4] | –
0.033 µM | COC(=O)N1CC(c2nc(-c3ccc(C)c(NC(=O)c4cnc5ccc(CCCC#N)cn45)c3)no2)C1 [F59, methyl 3-(3-(3-(6-(3-cyanopropyl)imidazo[1,2-a]pyridine-3-carboxamido)-4-methylphenyl)-1,2,4-oxadiazol-5-yl)azetidine-1-carboxylate] | –
0.032 µM | Cc1ccc(-c2noc([C@H]3CCC(F)(F)CO3)n2)cc1NC(=O)c1cnc2ccccn12 [F12] | –
0.028 µM | COC(=O)N1CC(c2nc(-c3ccc(C)c(NC(=O)c4cnc5ccc(OC)cn45)c3)no2)C1 [F60] | –
0.026 µM | Cc1ccc2ncc(C(=O)Nc3cc(-c4noc(N5CC(O)(C(F)(F)F)C5)n4)ccc3C)n2c1 [F6] | –
0.02 µM | COC(=O)N1CC(c2nc(-c3ccc(C)c(NC(=O)c4cnc5ccccn45)c3)no2)C1 [F15, methyl 3-(3-(3-(imidazo[1,2-a]pyridine-3-carboxamido)-4-methylphenyl)-1,2,4-oxadiazol-5-yl)azetidine-1-carboxylate] | –
0.02 µM | Cc1ccc(-c2noc(CN3CCC(F)(F)CC3)n2)cc1NC(=O)c1cnc2ccccn12 [F30] | –
0.017 µM | Cc1ccc(-c2noc(CC3CCCCO3)n2)cc1NC(=O)c1cnc2ccccn12 (stereo not drawn) [F44] | –
0.013 µM | Cc1ccc(-c2nc(N3CC(F)(F)C3)no2)cc1NC(=O)c1cnc2ccccn12 [F2] | –
